In US8389526B2, “3-heteroarylmethyl-imidazo[1,2-b]pyridazin-6-yl derivatives” (Novartis AG, priority 2009, dated 2013) one finds IC50 data, which are given here for 12 compounds.

Assay [1] addresses T1, c-Met receptor tyrosine kinase, GST-c-Met(969-1390) (Homo sapiens, UniProt P08581).
T1 construct: made in house
In words: EPK c-Met profiling assay (LanthaScreen TR-FRET kinase assay). It counts as biochemical. The settings on record: 2 μM ATP, 0.3 nM enzyme, 60 minutes at room temperature. As to the method:
A number of compounds of the present invention were assayed in an antibody based kinase phosphorylation assay as follows.
Epk c-Met Profiling Assay:
The EPK kinase assay for c-Met receptor tyrosine kinase was developed, using the purified recombinant GST-fusion protein, containing the cytoplasmic domain of the enzyme. GST-c-Met(969-1390) was purified by affinity chromatography.
The kinase assay is based on the LanthaScreen™ technology. LanthaScreen™ is the detection of Time-Resolved Fluorescence Resonance Energy Transfer (TR-FRET) using lanthanide chelates to measure interactions between various binding partners. In a TR-FRET kinase assay, a long-lifetime lanthanide donor species is conjugated to an antibody that specifically binds to a phosphorylated product of a kinase reaction that is labeled with a suitable acceptor fluorophore. This antibody-mediated interaction brings the lanthanide donor and the acceptor into proximity such that resonance energy transfer can take place, resulting in a detectible increase in the FRET signal.
The kinase reactions were performed in 384 well microtiter plates in a total reaction volume of 9.05 μL. The assay plates were prepared with 0.05 μL per well of test compound in the appropriate test concentration, as described under “preparation of compound dilutions”. The reactions were started by combining 4.5 μL of ATP solution with 4.5 μL of enzyme-substrate mix (consisting of kinase and substrate). The final concentrations in the kinase reactions were 35 mM Tris/HCl, 1 mM DTT, 0.025% Tween20, 10 μM sodium orthovanadate, 0.25% BSA, 0.6% DMSO, 10 mM MgCl2, 3 mM MnCl2, 2 μM ATP, 50 nM Fluorescein-PolyEAY, and 0.3 nM enzyme.
The reactions were incubated for 60 minutes at room temperature and stopped by adding 4.5 μL of stop buffer (50 mM EDTA, 0.04% NP40, 20 mM Tris/HCl).
Subsequently 4.5 μL of detection mix (50 mM Tris/HCl, 2 mM DTT, 0.05% Tween20, 20 μM sodium orthovanadate, 1% BSA, 1.72 μg/mL Tb-PY20 antibody) were added to the stopped reactions. After 30 minutes incubation at room temperature, the plates were measured in a BMG Pherastar fluorescence reader. The effect of compound on the enzymatic activity was in all assays obtained from the linear progress curves and determined from one reading (end point measurement).
Preparation of Compound Dilutions
Test compounds were dissolved in DMSO (10 mM) and transferred into 1.4 mL flat bottom or V-shaped Matrix tubes carrying a unique 2D matrix. The stock solutions were stored at −20° C. if not used immediately. For the test procedure the vials were defrosted and identified by a scanner whereby a working sheet was generated that guided the subsequent working steps.
Compound dilutions were made in 96 well plates. This format enabled the assay of maximally 40 individual test compounds at 8 concentrations (single points) including 4 reference compounds. The dilution protocol included the production of “pre-dilution plates”, “master plates” and “assay plates”.
Pre-dilution plates: 96 polypropylene well plates were used as pre-dilution plates. A total of 4 pre-dilution plates were prepared including 10 test compounds each on the plate positions A1-A10, one standard compound at A11 and one DMSO control at A12. All dilution steps were done on a HamiltonSTAR robot.
Master plates: 100 μL of individual compound dilutions including standard compound and controls of the 4 “pre-dilution plates” were transferred into a 384 “master plate” including the following concentrations 1′820, 564, 182, 54.6, 18.2, 5.46, 1.82 and 0.546 μM, respectively in 90% of DMSO.
Assay plates: Identical “assay plates” were then prepared by pipetting 50 nL each of compound dilutions of the “master plates” into 384-well “assay plates” by means of a HummingBird 384-channel dispenser. These plates were used directly for the assay which was performed in a total volume of 9.05 μL. […]
On the technique in general: In TR-FRET formats the signal depends on donor and acceptor labels being close together.

The test system of assay [2] is MET-amplified gastric cancer cell line GTL-16. In words: GTL-16 proliferation assay (MTS). As to conditions: Homo sapiens, GTL-16 cells, 72 h incubation. It is filed as cell-based. As to the method:
(§1) C-Met Dependent Cellular Assays
(§2) A number of compounds of the present invention were assayed in a c-Met dependent proliferation and phosphorylation assay as follows.
GTL-16 proliferation assay: the MET-amplified gastric cancer cell line GTL-16 was grown under standard cell culture conditions in DMEM [Dulbecco's Modified Eagle Medium] (high glucose) supplemented with 10% heat-inactivated fetal calf serum and 2 mM L-glutamine. For proliferation assays, cells were seeded at 3000 per well in 96-well-plates. 24 h later, a 10-point dilution series of each compound (3-fold steps, ranging from […]) was prepared in DMSO. Compound were then diluted 1000-fold in growth media in two steps and added to cells in triplicates, resulting in a final volume of […] per well and maximal final compound concentrations of […]. A DMSO-only control was included. Cells were incubated for 72 h and the amount of viable cells was then measured by adding […] of MTS reagent (CellTiter 96® AQueous Non-Radioactive Cell Proliferation Assay, Promega), further incubation for 30′, and reading the optical density at 490 nm.

The target in the next assay is T2, c-Met (Homo sapiens, UniProt P08581).
T2 construct: adapted to measure the phosphorylation of endogenous cellular proteins in cell lysates; endogenous in cells; host or cells: GTL-16
The assay is described as follows: GTL-16 c-Met autophosphorylation measured by AlphaScreen detection. It counts as cell-based. As to conditions: GTL-16 cells, 1 h incubation, AlphaScreen p-c-Met; read-out: GTL-16 IC50 c-Met phosphorylation. As to the method: as §1, §2
GTL-16 c-Met autophosphorylation measured by AlphaScreen® detection: the human MET-amplified gastric cancer cells GTL-16 were plated in 384-well plates at a density of 10′000 cells in 20 ul complete growth medium (DMEM high glucose supplemented with 10% (v/v) heat inactivated fetal calf serum and of 1 mM sodium pyruvate) and were incubated at […]/5% CO2/95% humidity for 20 h. The cells were washed and the 30 ul assay buffer (DMEM high glucose, 1 mM sodium pyruvate, 0.1% bovine serum albumine) was added. Compounds were diluted in 384-well compound plates to obtain 8-point serial dilutions for 40 test compounds in 90% DMSO, as well as a reference compound plus 16 high- and 16 low (inhibited) controls. These compound plates were prediluted 1:200 in assay buffer into a compound predilution plate and 10 ul of prediluted compound solution were transferred to the cell plate using a 384-well pipettor, resulting in a final DMSO concentration of 0.11%. Cells were incubated for 1 h at […]/5% CO2/95% humidity. The supernatant was removed, the cells were lysed in 25 ul of RIPA [radio immuno precipitation assay] lysis buffer supplemented with 2 mM sodium vanadate and a protease inhibitor cocktail, and cell plates were stored at −80° C.
For detection of p-c-Met, an AlphaScreen®-based assay was used. AlphaScreen® (Amplified Luminescent Proximity Homogeneous Assay, ALPHA, Perkin Elmer, U.S.A) is a non-radioactive bead-based proximity assay technology to study biomolecular interactions in a homogenous microtiter plate format. This technique has been adapted to measure the phosphorylation of endogenous cellular proteins in cell lysates by the use of specific antibody pairs against the total protein and a phospho-specific epitope. 5 ul of cell lysate was transferred to 384-well low volume Proxiplates for detection using a 384-well pipettor. First, 5 ul of a premix of an anti-c-Met antibody (0.25 ug/ml f.c.), a biotinylated PY20 antibody (phosphotyrosine antibody, 0.05 ug/ml f.c.) and AlphaScreen® Protein A-coupled acceptor beads (10 ug/ml f.c.) in RIPA buffer supplemented with 0.25% (v/w) TOP BLOCK, 2 mM sodium vanadate, and a protease inhibitor cocktail and was added, the plate was sealed, and incubated on a plate shaker for 2 hours at room temperature. Second, 2 ul of dilution buffer containing AlphaScreen® Streptavidin-coated donor beads (10 ug/ml f.c.) in RIPA buffer was added, and the plate was incubated on plate shaker as above for a further 2 hours. The plate was read on an AlphaScreen® compatible plate reader, using standard AlphaScreen® settings.

T2 sequence (P08581 25-1390): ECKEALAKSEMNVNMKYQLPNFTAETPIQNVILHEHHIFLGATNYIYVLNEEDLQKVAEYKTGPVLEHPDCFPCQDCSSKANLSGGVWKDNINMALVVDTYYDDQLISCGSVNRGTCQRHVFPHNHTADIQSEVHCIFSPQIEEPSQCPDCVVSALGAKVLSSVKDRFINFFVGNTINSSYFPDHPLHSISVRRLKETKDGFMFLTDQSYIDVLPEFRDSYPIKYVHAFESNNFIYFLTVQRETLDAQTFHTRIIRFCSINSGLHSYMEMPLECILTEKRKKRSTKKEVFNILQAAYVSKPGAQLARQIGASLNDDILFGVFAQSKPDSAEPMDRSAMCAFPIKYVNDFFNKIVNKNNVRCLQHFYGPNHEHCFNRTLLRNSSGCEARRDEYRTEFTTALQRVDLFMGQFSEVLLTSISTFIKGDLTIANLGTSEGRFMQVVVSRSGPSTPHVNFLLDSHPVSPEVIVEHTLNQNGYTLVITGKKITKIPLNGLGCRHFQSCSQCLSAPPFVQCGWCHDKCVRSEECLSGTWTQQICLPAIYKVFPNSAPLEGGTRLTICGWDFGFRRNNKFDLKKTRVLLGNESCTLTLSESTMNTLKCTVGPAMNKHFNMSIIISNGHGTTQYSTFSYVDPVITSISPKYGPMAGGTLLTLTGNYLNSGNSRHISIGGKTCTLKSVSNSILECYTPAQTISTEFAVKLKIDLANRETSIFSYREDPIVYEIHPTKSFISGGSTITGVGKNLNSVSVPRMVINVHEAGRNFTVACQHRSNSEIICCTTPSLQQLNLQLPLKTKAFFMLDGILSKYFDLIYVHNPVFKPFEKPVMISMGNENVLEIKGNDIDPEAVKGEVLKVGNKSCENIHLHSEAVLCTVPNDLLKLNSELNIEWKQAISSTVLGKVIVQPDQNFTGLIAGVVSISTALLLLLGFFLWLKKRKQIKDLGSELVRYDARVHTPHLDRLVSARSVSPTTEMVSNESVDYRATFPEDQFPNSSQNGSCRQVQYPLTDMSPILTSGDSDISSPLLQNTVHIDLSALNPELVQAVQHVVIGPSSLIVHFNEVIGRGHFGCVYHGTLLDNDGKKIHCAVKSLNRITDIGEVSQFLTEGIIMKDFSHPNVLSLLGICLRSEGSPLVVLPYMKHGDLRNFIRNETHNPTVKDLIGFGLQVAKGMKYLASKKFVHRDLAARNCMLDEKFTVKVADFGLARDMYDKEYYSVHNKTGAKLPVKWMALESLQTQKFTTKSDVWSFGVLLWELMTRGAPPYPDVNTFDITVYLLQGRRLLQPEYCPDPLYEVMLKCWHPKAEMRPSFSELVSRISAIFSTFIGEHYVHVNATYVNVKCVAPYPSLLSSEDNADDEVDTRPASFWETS
T1 sequence (P08581 969-1390): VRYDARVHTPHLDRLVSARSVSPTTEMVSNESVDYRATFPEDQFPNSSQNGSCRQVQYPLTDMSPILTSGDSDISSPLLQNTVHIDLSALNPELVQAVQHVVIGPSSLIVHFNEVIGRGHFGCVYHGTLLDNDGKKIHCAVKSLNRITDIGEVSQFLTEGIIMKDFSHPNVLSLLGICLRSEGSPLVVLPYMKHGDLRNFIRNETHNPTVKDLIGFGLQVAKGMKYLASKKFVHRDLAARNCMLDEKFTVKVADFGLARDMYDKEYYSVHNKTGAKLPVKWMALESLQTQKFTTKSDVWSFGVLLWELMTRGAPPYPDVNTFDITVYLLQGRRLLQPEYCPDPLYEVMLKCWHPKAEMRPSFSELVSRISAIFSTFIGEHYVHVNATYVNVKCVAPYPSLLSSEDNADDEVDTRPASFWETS

`CC(c1c(F)cc2c(cnn2C(C)C)c1F)c1cnc2ccc(N3CCN(C)C(=O)C3)nn12` (racemic) [Example 56, (rac)-4-(3-(1-(4,6-difluoro-1-isopropyl-1H-indazol-5-yl)ethyl)imidazo[1,2-b]pyridazin-6-yl)-1-methylpiperazin-2-one]: the IC50 in assay [1] came to 27 nM; in assay [2] it was 49 nM; on c-Met, 7 nM.

Turning to `CC(=O)N1CCN(c2ccc3ncc(C(C)c4c(F)cc5ncccc5c4F)n3n2)CC1` (racemic) [Example 10, (rac)-1-(4-{3-[1-(5,7-Difluoro-quinolin-6-yl)-ethyl]-imidazo[1,2-b]pyridazin-6-yl}-piperazin-1-yl)ethanone], the IC50 in assay [1] is less than 3 nM; in assay [2], 14.6 nM; at c-Met, less than 3 nM.

As to `CN1CCN(c2ccc3ncc(Cc4c(F)cc5ncccc5c4F)n3n2)CC1` [Example 33, 5,7-Difluoro-6-[6-(4-methyl-piperazin-1-yl)-imidazo[1,2-b]pyridazin-3-ylmethyl]-quinoline], the IC50 in assay [1] came out at 14 nM; in assay [2] it was 46 nM; at c-Met, 9 nM.

In the case of `C[C@@H](c1cc2cnn(C)c2cc1F)c1cnc2ccc(N3CCN(C)C(=O)C3)nn12` [Example 26, 4-{3-[(S)-1-(6-Fluoro-1-methyl-1H-indazol-5-yl)-ethyl]-imidazo[1,2-b]pyridazin-6-yl}-1-methyl-piperazin-2-one], the IC50 in assay [1] was 26 nM; in assay [2], 66 nM; at c-Met, 10 nM.

`CC1CN(c2ccc3ncc(C(C)c4c(F)cc5ncccc5c4F)n3n2)CC(=O)N1` (racemic) [Example 24, (rac)-4-{3-[1-(5,7-Difluoro-quinolin-6-yl)-ethyl]-imidazo[1,2-b]pyridazin-6-yl}-6-methylpiperazin-2-one]: the IC50 came to 4 nM in assay [1], 9.8 nM in assay [2] and 4 nM on c-Met.

Take `CC(=O)N1CCN(c2ccc3ncc(C(C)c4cc5cccnc5cc4F)n3n2)CC1` (racemic) [Example 42, (rac)-1-(4-{3-[1-(7-Fluoro-quinolin-6-yl)-ethyl]-imidazo[1,2-b]pyridazin-6-yl}-piperazin-1-yl)ethanone]: the IC50 in assay [1] came to 49 nM; in assay [2], 193 nM; at c-Met it was 39 nM.

For `CC(c1c(F)cc2ncccc2c1F)c1cnc2ccc(N3CCN(C4CCCC4)C(=O)C3)nn12` (racemic) [Example 20, (rac)-4-{3-[1-(5,7-Difluoro-quinolin-6-yl)-ethyl]-imidazo[1,2-b]pyridazin-6-yl}-1-cyclopentylpiperazin-2-one], the IC50 in assay [1] was 27 nM; in assay [2], 21 nM; at c-Met, 7 nM.

`CC(c1c(F)cc2c(cnn2C)c1F)c1cnc2ccc(N3CCN(C)C(=O)C3)nn12` (racemic) [Example 49, (rac)-4-(3-(1-(4,6-difluoro-1-methyl-1H-indazol-5-yl)ethyl)imidazo[1,2-b]pyridazin-6-yl)-1-methylpiperazin-2-one]: the values for the IC50 (in assay [1]; in assay [2]; at c-Met) were 16 nM, 29 nM and 6.5 nM, respectively.

As to `CC(c1c(F)cc2c(cnn2C(C)C)c1F)c1cnc2ccc(N3CCNC(=O)C3)nn12` (racemic) [Example 57, (rac)-4-(3-(1-(4,6-difluoro-1-isopropyl-1H-indazol-5-yl)ethyl)imidazo[1,2-b]pyridazin-6-yl)piperazin-2-one], the IC50 came to 17 nM in assay [1], 36 nM in assay [2] and 9 nM on c-Met.

As for `C[C@@H](c1c(F)cc2c(cnn2C)c1F)c1cnc2ccc(N3CCNC(=O)C3)nn12` [Example 52, 4-{3-[(S)-1-(4,6-Difluoro-1-methyl-1H-indazol-5-yl)-ethyl]-imidazo[1,2-b]pyridazin-6-yl}-piperazin-2-one], the results for the IC50 (in assay [1]; in assay [2]; on c-Met) were less than 3 nM, 11 nM and 2.2 nM, respectively.

With `CC(c1cc2cccnc2cc1F)c1cnc2ccc(N3CCN(C)C(=O)C3)nn12` (racemic) [Example 40, (rac)-4-{3-[1-(7-Fluoro-quinolin-6-yl)-ethyl]-imidazo[1,2-b]pyridazin-6-yl}-1-methyl-piperazin-2-one], the IC50 in assay [1] stood at 39 nM; in assay [2], 147 nM; at c-Met, 11 nM.

In the case of `COC(=O)N1CCN(c2ccc3ncc(Cc4c(F)cc5ncccc5c4F)n3n2)CC1` [Example 36, 4-[3-(5,7-Difluoro-quinolin-6-ylmethyl)-imidazo[1,2-b]pyridazin-6-yl]-piperazine-1-carboxylic acid methyl ester], the IC50 in assay [1] was 11 nM; in assay [2], 25 nM; on c-Met, less than 3 nM.

What is called IC50 is the concentration that inhibits the measured activity by half.
